# Experimental data taken from patent US9382517B2, “HCV full-length infectious cell culture systems and applications thereof” (priority 2012, dated 2016).
# Columns and labels:
# J6 full-length virus = assay: HCV antiviral treatment of Huh7.5 cells infected with J6 full-length virus (fourth passage J6_LSGΔ33U); assay type: cell-based, hepatitis C virus (genotype 2a); settings: for inhibition of full-length J6 culture viruses: treatment 24 and 48 hours post-infection, HCV positive cells counted 72 hours post-infection
# Protocol: (§1) Naïve Huh7.5 cells were infected with indicated viruses, and antiviral treatments were carried out at 24 and 48 hours post-infection. The HCV positive cells were counted 72 hours post-infection as previously described. Fourth passage J6 full-length J6_LSGΔ33U virus (Table 3) was used for treatment. Treatment experiments with recombinants J6^5′UTR-NS2/JFH1, J6^Core-NS2,NS3 protease, NS4A/JFH1 and J6^Core-NS2,NS5A/JFH1 were included for comparison. (A) Treatment with protease inhibitors (boceprevir and TMC435) and the NS5A inhibitor daclatasvir (BMS-790052). (B) Treatment with NS5B inhibitors. (C) Median effective concentrations (EC50) of the used inhibitors against the indicated viruses. *, range of two experiments; experiments with the lowest EC50 shown in A or B. In A and B, values are means of triplicate determinations.
# (§2) HCV antiviral treatment. HCV antivirals were purchased from Acme Bioscience (Palo Alto, Calif.) and dissolved in dimethyl sulfoxide. Huh7.5 cells grown in poly-D-lysine-coated 96-well plates (Nunc) were infected with HCV and treated with antivirals 24 and 48 hours post-infection as previously described. Single HCV core positive cells were determined by immunostaining with C7-50 (Enzo Life Sciences) 72 hours post-infection.
# Huh7.5 cells = assay: Cytotoxicity assay, non-cytotoxic dose range (Example 3); assay type: cell-based, human; settings: at the doses used in this study
# Protocol: A cytotoxicity assay was performed for PSI-7977, as we had not used this drug previously. The non-cytotoxic dose range for telaprevir, boceprevir, simeprevir, daclatasvir, and interferon-α2b was determined.
# TN full-length virus = assay: HCV antiviral treatment of Huh7.5 cells infected with TN full-length virus (first passage TN_LSGF/A1226G/Q1773H); assay type: cell-based, hepatitis C virus (genotype 1a); settings: for inhibition of TN full-length virus: DAAs 24 hours post-infection, interferon-α2b 24 and 48 hours, HCV positive cells 72 hours post-infection
# Protocol: (§3) Naïve Huh7.5 cells were infected with first passage virus stock of TN full-length recombinant TN_LSGF/A1226G/Q1773H; the ORF sequence of this virus stock is shown in FIGS. 16 and 17. A J6/JFH1 virus stock was treated in parallel. Antivirals were administered 24 hours post infection at the indicated doses; interferon-α2b was also administered 48 hours post infection. The number of HCV positive cells per well was determined 72 hours post infection. (A) Dose response curves for treatments with lead compound protease inhibitors telaprevir (VX-950), boceprevir (SCH503034), and simeprevir (TMC435), NS5A inhibitor daclatasvir (BMS-790052), and NS5B inhibitor PSI-7977, as well as interferon-α2b. Values are means of triplicate determinations with SEM. (B) Median effective concentrations (EC50) of the used inhibitors against the indicated viruses. Values for EC50 and 95% confidence interval are shown.
# (§4) HCV antiviral treatment. HCV DAAs were purchased from Acme Bioscience (Palo Alto, Calif.) and dissolved in dimethyl sulfoxide. Inerferon-α2b was purchased from Schering-Plough (Kenilworth, N.J.).
# Briefly, Huh7.5 cells grown in poly-D-lysine-coated 96-well plates (Nunc) were infected with HCV and treated with DAAs 24 hours post-infection. Treatment with interferon-α2b was performed at 24 and 48 hours post-infection. Single HCV Core and NS5A positive cells were determined 72 hours post-infection by immunostaining with combination of C7-50 (Enzo Life Sciences) and 9E10 antibodies. Dose response curves were fitted and EC50 values with 95% confidence interval were calculated in GraphPad Prim 4 (Graphpad).
# J6/JFH1 = assay: HCV antiviral treatment of Huh7.5 cells infected with J6/JFH1 virus stock; assay type: cell-based, hepatitis C virus (genotype 2a); settings: stated for HCV of genotypes 1 and 2
# Protocol: as §3, §4
# Briefly, Huh7.5 cells grown in poly-D-lysine-coated 96-well plates (Nunc) were infected with HCV and treated with DAAs 24 hours post-infection. […] Single HCV Core and NS5A positive cells were determined 72 hours post-infection by immunostaining with combination of C7-50 (Enzo Life Sciences) and 9E10 antibodies. […]
# [1] = tested on: J6/JFH1 with J6-specific NS3/NS4A protease; assay: HCV antiviral treatment of Huh7.5 cells infected with J6/JFH1 with J6-specific NS3/NS4A protease; assay type: cell-based, hepatitis C virus (genotype 2a); settings: J6/JFH1 with J6-specific NS3/NS4A protease compared to J6^5′UTR-NS2/JFH1
# Protocol: as §1, §2
# [2] = tested on: J6/JFH1-based recombinant with TN NS5A; assay: HCV antiviral treatment, J6/JFH1-based recombinant with TN NS5A; assay type: cell-based; settings: Hepatitis C virus, read-out: Median effective concentration (EC50)
# [3] = J6 virus compared to J6^5′UTR-NS2/JFH1
Molecule,fold lower EC50 compared to J6^5′UTR-NS2/JFH1 (J6 full-length virus; [3]),inhibition of full-length J6 culture viruses (J6 full-length virus),cytotoxic effects (Huh7.5 cells),inhibition of TN full-length virus (TN full-length virus),further results
C[C@@]1(F)[C@H](O)[C@@H](CO)O[C@H]1n1ccc(N)nc1=O [PSI-6130],around 4 fold,inhibited,,,
CCC[C@H](NC(=O)[C@@H]1[C@H]2CCC[C@H]2CN1C(=O)[C@@H](NC(=O)[C@@H](NC(=O)c1cnccn1)C1CCCCC1)C(C)(C)C)C(=O)C(=O)NC1CC1 [telaprevir],,,No cytotoxic effects,,
CC(C)[C@H](N)C(=O)O[C@@H]1[C@@H](CO)O[C@@H](n2ccc(N)nc2=O)[C@]1(C)O [NM283],~6 fold,inhibited,,,
interferon-α2b,,,No cytotoxic effects,dose-dependently inhibited,
CC(C)OC(=O)[C@H](C)N[P@](=O)(OC[C@H]1O[C@@H](n2ccc(=O)[nH]c2=O)[C@](C)(F)[C@@H]1O)Oc1ccccc1 [PSI-7977],,,No cytotoxic effects,dose-dependently inhibited,inhibition of HCV of genotype 2 (J6/JFH1) (J6/JFH1): efficiently inhibit
CC(C)(C)NC(=O)N[C@H](C(=O)N1C[C@H]2[C@@H]([C@H]1C(=O)NC(CC1CCC1)C(=O)C(N)=O)C2(C)C)C(C)(C)C (stereo partly drawn) [boceprevir],,,No cytotoxic effects,,
CNC(=O)c1c(-c2ccc(F)cc2)oc2cc(N(CCO)S(C)(=O)=O)c(C3CC3)cc12 [HCV-796],~2 fold,inhibited,,,
"COc1ccc2c(O[C@@H]3C[C@H]4C(=O)N[C@]5(C(=O)NS(=O)(=O)C6CC6)C[C@H]5/C=C\CCCCN(C)C(=O)[C@@H]4C3)cc(-c3nc(C(C)C)cs3)nc2c1C [TMC435, simeprevir]",,inhibited,No cytotoxic effects,dose-dependently inhibited,fold higher EC50 than that found for J6^5′UTR-NS2/JFH1 (J6 full-length virus; [3]): 2-3 fold; fold higher EC50 than that found for J6^5′UTR-NS2/JFH1 [1]: 2-3 fold
COC(=O)N[C@H](C(=O)N1CCC[C@H]1c1nc(-c2ccc(-c3ccc(-c4c[nH]c([C@@H]5CCCN5C(=O)[C@@H](NC(=O)OC)C(C)C)n4)cc3)cc2)c[nH]1)C(C)C [daclatasvir],,,No cytotoxic effects,,"EC50 (TN full-length virus; Hepatitis C virus, TN full-length virus, 72 hours post-infection, read-out: Median effective concentration (EC50)): 0.032 nM; EC50 [2]: 0.042 nM"
